Data on eleven compounds can be found in US8497245B2, “Trypsin-like serine protease inhibitors, their preparation and use as selective inhibitors of the clotting factors IIa and Xa” (The Medicines Company (Leipzig) GmbH, priority 2010, dated 2013).

SMILES strings stand for the structures. Where only a bound is given, the exact number is not on record here.

Holding throughout (type): biochemical
The target in assay [1] is T1, Subcomponent "r" of Human Complement Component 1 (h C1r) (Homo sapiens, UniProt P00736).
T1 construct: purchased Calbiochem
T1 sequence (P00736 464-705 limits assumed): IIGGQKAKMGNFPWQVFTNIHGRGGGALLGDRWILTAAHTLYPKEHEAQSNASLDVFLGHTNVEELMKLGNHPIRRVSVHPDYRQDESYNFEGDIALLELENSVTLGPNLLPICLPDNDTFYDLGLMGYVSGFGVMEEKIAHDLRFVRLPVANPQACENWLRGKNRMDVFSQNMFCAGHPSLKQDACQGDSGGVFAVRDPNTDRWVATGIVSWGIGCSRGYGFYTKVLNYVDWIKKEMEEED
T1 sequence (P00736 18-463 partner limits assumed): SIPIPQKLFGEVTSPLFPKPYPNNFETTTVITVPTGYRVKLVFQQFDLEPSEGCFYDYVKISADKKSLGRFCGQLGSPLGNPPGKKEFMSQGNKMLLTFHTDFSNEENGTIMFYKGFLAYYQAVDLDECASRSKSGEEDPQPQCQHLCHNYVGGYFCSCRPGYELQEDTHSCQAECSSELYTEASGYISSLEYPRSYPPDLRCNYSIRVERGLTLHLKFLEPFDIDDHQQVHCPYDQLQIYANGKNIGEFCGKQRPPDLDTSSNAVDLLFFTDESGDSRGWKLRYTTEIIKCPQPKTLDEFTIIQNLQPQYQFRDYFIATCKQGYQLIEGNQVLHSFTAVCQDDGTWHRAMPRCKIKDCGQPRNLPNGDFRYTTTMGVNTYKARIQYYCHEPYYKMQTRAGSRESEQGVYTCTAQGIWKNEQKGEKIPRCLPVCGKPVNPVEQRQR
Nature of the assay: Inhibition of human C1r (reference enzyme). As to conditions: S-2314 substrate; read-out: Ki h Clr. The method, then:
(§1) The inhibitory effect against the individual purified enzymes was determined in analogy to a previously disclosed method (Stürzebecher et al., J. Med. Chem., 40, 3091-3099 (1997)).
(§2) The release of p-nitroaniline (p-NA, the chromogenic product of the proteolytic activity), was determined by change in absorbance at 405 nm. The equilibrium rates were used to calculate the inhibitor/enzyme dissociation constant (Ki values) by parameter fitting in accordance with the rate equation for competitive inhibition using GraFit (version 4 from Erithacus). The results are reported as Ki values (nanomolar) in table 7 and are the average of at least three determinations.
(§3) Dissociation constants were calculated as described herein.

Assay [2] concerns the target T2, Subcomponent "s" of Human Complement Component 1 (h C1s) (Homo sapiens, UniProt P09871).
T2 construct: purchased Calbiochem
T2 sequence (P09871 438-688 limits assumed): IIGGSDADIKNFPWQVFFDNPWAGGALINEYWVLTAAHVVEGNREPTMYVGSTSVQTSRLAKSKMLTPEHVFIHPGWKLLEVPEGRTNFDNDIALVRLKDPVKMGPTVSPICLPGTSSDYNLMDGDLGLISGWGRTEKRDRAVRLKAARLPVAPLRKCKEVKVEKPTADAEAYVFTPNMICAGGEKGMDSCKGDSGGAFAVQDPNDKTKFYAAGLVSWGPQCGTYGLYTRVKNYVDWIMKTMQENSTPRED
T2 sequence (P09871 16-437 partner limits assumed): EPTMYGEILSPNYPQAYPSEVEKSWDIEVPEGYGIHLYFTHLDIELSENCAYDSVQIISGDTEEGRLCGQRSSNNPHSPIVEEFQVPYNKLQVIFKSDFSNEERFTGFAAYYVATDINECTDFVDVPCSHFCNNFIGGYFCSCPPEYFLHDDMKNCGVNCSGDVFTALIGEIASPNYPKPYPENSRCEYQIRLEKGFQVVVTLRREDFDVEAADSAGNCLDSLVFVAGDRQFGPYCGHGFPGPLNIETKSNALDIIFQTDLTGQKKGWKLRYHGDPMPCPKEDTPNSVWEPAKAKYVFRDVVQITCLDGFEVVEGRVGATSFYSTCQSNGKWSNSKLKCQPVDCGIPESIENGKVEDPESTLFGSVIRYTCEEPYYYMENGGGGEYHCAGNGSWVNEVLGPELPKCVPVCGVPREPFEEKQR
Kind of assay: Inhibition of human C1s (reference enzyme). Particulars: S-2314 substrate; read-out: Ki h Cls. How it is done:
as §1, §2, §3

Assay [3] concerns the target T3, Human urokinase type plasminogen activator (h u-PA) (Homo sapiens, UniProt P00749).
T3 construct: purchased MEDAC GmbH Urokinase HS medac
Nature of the assay: Inhibition of human urokinase type plasminogen activator (reference enzyme). Particulars: H-Glu-Gly-Arg-pNA substrate. How it is done:
as §1, §2, §3

Assay [4] has as its target T4, human Factor Xa (Homo sapiens, UniProt P00742).
T4 construct: human Factor Xa from Enzyme Research Laboratories; purchased Enzyme Research Laboratories
Kind of assay: Inhibition constants for human factor Xa, chromogenic substrate assay. Particulars: 25° C., Pefachrome FXa substrate, average of at least three determinations; read-out: Ki h FXa. The method, then: as §1
(§4) 200 μL of TBS (0.05 M trishydroxymethylaminomethane; 0.154 M NaCl, 2% ethanol, pH 8.0)
as §2

For assay [5], the target named is T5, Human Activated Protein C (h aPC) (Homo sapiens, UniProt P04070).
T5 construct: purchased Enzyme Research Laboratories
Nature of the assay: Inhibition of human activated protein C (reference enzyme). As to conditions: Pefachrome PCa substrate. The method, then: as §1, §2, §3

Assay [6] has as its target T6, Human plasma kallikrein (h PK) (Homo sapiens, UniProt P03952).
T6 construct: purchased Enzyme Research Laboratories
Kind of assay: Inhibition of human plasma kallikrein (reference enzyme). Particulars: S2302 substrate. The method, then: as §1, §2, §3

The target of assay [7] is T7, human factor IIa (human alpha-thrombin) (Homo sapiens, UniProt P00734).
T7 construct: human alpha-thrombin from Enzyme Research Laboratories; purchased Enzyme Research Laboratories
Kind of assay: Inhibition constants for human factor IIa, chromogenic substrate assay. As to conditions: 25° C., Pefachrome tPA substrate, average of at least three determinations; read-out: Ki h FIIa. How it is done:
as §1, §4, §2

For assay [8], the target named is T8, Human urinary kallikrein (h uKK) (Homo sapiens, UniProt P06870).
T8 construct: purchased Lee Biosolutions
Kind of assay: Inhibition of human urinary kallikrein (reference enzyme). As to conditions: S-2266 substrate. The method, then:
as §1, §2, §3

Assay [9] deals with T9, Human plasmin (h plasmin) (Homo sapiens, UniProt P00747).
T9 construct: purchased Calbiochem
Kind of assay: Inhibition of human plasmin (reference enzyme). As to conditions: Chromozym PL substrate. How it is done: as §1, §2, §3

The target in assay [10] is T10, Human tissue-type plasminogen activator (h t-PA) (Homo sapiens, UniProt P00750).
T10 construct: purchased Boehringer Ingelheim Actilyse
Kind of assay: Inhibition of human tissue-type plasminogen activator (reference enzyme). Particulars: Pefachrome tPA substrate; read-out: Ki h t-PA. The method, then: The equilibrium rates were used to calculate the inhibitor/enzyme dissociation constant (Ki values) by parameter fitting in accordance with the rate equation for competitive inhibition using GraFit (version 4 from Erithacus).
as §3

T5 sequence (P04070 212-450 limits assumed): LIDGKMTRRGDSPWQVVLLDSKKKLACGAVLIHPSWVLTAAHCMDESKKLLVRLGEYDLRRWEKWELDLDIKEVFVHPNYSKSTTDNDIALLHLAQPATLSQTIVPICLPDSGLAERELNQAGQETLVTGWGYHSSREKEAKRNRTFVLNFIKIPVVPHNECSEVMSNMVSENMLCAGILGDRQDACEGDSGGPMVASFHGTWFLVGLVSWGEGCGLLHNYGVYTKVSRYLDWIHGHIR
T5 sequence (P04070 43-197 partner limits assumed): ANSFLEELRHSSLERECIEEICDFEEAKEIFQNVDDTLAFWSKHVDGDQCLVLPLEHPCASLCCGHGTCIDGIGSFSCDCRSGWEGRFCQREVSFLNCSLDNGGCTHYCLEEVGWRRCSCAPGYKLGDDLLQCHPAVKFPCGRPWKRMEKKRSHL
T4 sequence (P00742 235-488 limits assumed): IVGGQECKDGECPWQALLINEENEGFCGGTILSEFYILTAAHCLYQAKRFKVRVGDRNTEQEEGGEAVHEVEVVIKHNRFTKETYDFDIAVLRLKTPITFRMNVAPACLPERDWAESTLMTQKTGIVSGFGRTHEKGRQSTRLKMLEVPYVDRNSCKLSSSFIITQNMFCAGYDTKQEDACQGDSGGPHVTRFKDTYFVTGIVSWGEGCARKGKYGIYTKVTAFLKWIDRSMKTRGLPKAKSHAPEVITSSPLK
T4 sequence (P00742 41-179 partner limits assumed): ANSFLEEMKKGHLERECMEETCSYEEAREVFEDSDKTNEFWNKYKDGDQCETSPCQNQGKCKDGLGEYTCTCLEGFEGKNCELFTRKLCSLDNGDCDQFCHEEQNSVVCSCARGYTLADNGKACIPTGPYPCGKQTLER
T9 sequence (P00747 581-810 limits assumed): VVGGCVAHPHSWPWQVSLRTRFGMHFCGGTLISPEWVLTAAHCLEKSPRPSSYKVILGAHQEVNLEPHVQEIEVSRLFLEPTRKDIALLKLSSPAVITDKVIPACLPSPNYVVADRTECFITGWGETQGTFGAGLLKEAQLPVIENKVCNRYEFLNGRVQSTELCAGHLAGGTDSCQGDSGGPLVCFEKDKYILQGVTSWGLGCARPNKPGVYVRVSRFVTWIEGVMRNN
T9 sequence (P00747 97-580 partner limits assumed): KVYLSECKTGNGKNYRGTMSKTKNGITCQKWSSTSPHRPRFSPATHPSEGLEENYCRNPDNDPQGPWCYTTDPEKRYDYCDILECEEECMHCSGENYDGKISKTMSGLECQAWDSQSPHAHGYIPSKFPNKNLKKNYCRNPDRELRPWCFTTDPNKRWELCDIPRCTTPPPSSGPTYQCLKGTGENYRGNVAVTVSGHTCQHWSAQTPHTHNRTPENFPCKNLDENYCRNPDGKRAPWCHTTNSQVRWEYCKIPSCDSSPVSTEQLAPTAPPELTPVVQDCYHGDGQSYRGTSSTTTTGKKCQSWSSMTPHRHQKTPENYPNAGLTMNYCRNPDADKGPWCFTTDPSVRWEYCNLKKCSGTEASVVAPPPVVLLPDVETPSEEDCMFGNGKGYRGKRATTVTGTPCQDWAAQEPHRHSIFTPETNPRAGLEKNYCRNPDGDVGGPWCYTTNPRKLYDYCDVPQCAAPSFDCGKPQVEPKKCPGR
T8 sequence (P06870 25-262): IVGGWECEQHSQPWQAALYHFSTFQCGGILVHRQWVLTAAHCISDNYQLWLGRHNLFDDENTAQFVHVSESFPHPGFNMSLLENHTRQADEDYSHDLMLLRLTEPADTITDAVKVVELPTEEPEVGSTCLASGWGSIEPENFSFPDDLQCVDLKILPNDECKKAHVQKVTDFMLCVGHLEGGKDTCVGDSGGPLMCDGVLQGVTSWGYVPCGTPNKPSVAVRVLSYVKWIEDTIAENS
T6 sequence (P03952 391-638 limits assumed): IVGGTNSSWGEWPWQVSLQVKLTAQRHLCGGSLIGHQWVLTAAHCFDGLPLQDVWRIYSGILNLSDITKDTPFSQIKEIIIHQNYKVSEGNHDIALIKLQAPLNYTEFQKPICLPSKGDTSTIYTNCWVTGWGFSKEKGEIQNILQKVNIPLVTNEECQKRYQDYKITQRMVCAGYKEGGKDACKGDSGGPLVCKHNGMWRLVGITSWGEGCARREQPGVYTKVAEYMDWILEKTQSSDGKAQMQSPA
T6 sequence (P03952 20-390 partner limits assumed): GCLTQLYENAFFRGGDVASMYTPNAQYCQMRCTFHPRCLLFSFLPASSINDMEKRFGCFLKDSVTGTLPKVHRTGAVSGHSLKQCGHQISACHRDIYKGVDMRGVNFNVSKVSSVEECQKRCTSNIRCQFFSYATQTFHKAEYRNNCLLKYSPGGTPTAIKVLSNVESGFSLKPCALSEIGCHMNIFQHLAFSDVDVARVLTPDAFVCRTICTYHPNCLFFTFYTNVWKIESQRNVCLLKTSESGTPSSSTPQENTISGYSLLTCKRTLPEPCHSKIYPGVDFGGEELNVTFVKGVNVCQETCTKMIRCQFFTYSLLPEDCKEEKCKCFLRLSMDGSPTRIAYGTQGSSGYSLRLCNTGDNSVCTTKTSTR
T10 sequence (P00750 36-562): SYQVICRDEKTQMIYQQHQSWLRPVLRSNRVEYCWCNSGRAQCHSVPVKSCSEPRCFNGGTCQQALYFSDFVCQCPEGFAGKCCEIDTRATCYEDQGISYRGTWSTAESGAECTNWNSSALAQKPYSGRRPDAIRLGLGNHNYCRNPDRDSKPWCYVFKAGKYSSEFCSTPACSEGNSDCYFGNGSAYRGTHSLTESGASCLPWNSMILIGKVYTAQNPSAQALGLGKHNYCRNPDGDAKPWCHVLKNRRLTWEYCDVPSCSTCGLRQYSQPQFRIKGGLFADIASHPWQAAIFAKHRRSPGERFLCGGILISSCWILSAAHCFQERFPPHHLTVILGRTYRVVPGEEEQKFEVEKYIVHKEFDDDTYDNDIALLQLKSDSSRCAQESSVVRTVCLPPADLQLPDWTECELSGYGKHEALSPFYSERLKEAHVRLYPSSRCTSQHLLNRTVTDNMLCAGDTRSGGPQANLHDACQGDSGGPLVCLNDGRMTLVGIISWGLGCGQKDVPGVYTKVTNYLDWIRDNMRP

For the compound `CN(CC1CCNCC1)C(=O)C[C@@H](NS(=O)(=O)Cc1ccccc1)C(=O)N1CCC[C@H]1C(=O)NCc1cc(Cl)ccc1CN` [Compound 2.16], the Ki is > 10 µM in [1]; > 50 µM in [2]; > 100 µM in [3]; 0.0015 µM in [4]; > 100 µM in [5]; 0.417 µM in [6]. The Ki is 0.0003 µM in [7], > 50 µM in [8], > 5 µM in assay [9] and > 50 µM in [10].
Regarding `CC(=O)N1CCC(CN(C)C(=O)C[C@@H](NS(=O)(=O)Cc2ccccc2)C(=O)N2CCC[C@H]2C(=O)NCc2cc(Cl)ccc2CN)CC1` [Compound 2.17], the Ki in assay [1] was > 10 µM; in assay [2], > 100 µM; in [3] it was > 40 µM; in assay [4] it was 0.0037 µM; in assay [5], > 40 µM; in [6], 0.417 µM. Besides, the Ki in assay [7] is 0.0002 µM; in [8], > 20 µM; in assay [9], > 5 µM; in [10], > 100 µM.
As to `CN1CCN(C(=O)C[C@@H](NS(=O)(=O)Cc2ccccc2)C(=O)N2CCC[C@H]2C(=O)NCc2cc(Cl)ccc2CN)CC1` [Compound 2.18], the Ki in assay [1] was > 25 µM; in assay [2], > 50 µM; in [3], > 100 µM; in assay [4] it was 0.0079 µM; in assay [5], > 100 µM; in [6], 0.17 µM. For the same compound, the Ki in assay [7] was 0.0015 µM; in assay [8], > 20 µM; in [9] it was > 10 µM; in assay [10], > 50 µM.
With `NCc1ccc(Cl)cc1CNC(=O)[C@@H]1CCCN1C(=O)[C@@H](CC(=O)N1CCNCC1)NS(=O)(=O)Cc1ccccc1` [Compound 2.19], the Ki in assay [1] was > 50 µM; in [2], > 100 µM; in [3] it was > 15 µM; in assay [4], 0.0015 µM; in [5], > 30 µM; in assay [6], 1.02 µM. In addition, the Ki in assay [7] was 0.0024 µM; in assay [8], > 5 µM; in [9], > 4.6 µM; in assay [10], > 5 µM.
For the compound `O=C(NCc1cc(Cl)ccc1-n1cnnn1)[C@@H]1CCCN1C(=O)[C@@H](CCC(=O)N1CCOCC1)NS(=O)(=O)Cc1ccccc1` [Compound 2.20], the Ki in assay [1] is > 30 µM; in [2], > 75 µM; in [3] it was > 100 µM; in [4], 0.0038 µM; in [5] it was > 30 µM; in assay [6], 0.74 µM. Also, the Ki was 0.0031 µM in [7], > 50 µM in assay [8], 7.27 µM in assay [9] and > 15 µM in [10].
Consider `O=C(NCc1cc(Cl)ccc1-n1cnnn1)[C@@H]1C[C@H](O)CN1C(=O)[C@@H](CCC(=O)N1CCOCC1)NS(=O)(=O)Cc1ccccc1` [Compound 2.21], for which the Ki in assay [1] is > 100 µM; in assay [2], > 50 µM; in assay [3], > 100 µM; in assay [4], 0.0053 µM; in assay [5] it was > 50 µM; in assay [6] it was 1.2 µM. Besides, the Ki in assay [7] was 0.159 µM; in assay [8], > 100 µM; in assay [9], 10.8 µM; in [10] it was > 20 µM.
Consider `NCc1ccc(Cl)cc1CNC(=O)[C@@H]1C[C@H](O)CN1C(=O)[C@@H](CCC(=O)N1CCOCC1)NS(=O)(=O)Cc1ccccc1` [Compound 2.22], for which the Ki in [1] was > 100 µM; in assay [2], > 50 µM; in assay [3] it was > 100 µM; in [4] it was 0.00068 µM; in assay [5], > 25 µM; in assay [6] it was 2.69 µM. Also, the Ki in assay [7] is 0.085 µM; in [8], > 100 µM; in assay [9] it was > 100 µM; in assay [10], > 100 µM.
Consider `N[C@H]1C[C@@H](C(=O)NCc2cc(Cl)ccc2-n2cnnn2)N(C(=O)[C@@H](CCC(=O)N2CCOCC2)NS(=O)(=O)Cc2ccccc2)C1` [Compound 2.23], for which the Ki was > 40 µM in assay [1]; > 70 µM in [2]; > 100 µM in assay [3]; 0.00032 µM in assay [4]; 6.7 µM in assay [5]; 0.39 µM in [6]. The Ki in assay [7] was 0.0067 µM; in assay [8], > 50 µM; in assay [9], 1.99 µM; in assay [10], 4.8 µM.
On to `NCc1ccc(Cl)cc1CNC(=O)[C@@H]1C[C@H](N)CN1C(=O)[C@@H](CCC(=O)N1CCOCC1)NS(=O)(=O)Cc1ccccc1` [Compound 2.24], for which the Ki in assay [1] is > 50 µM; in assay [2], > 60 µM; in assay [3], > 100 µM; in [4] it was 0.00019 µM; in assay [5], > 200 µM; in assay [6], 1.21 µM. Besides, the Ki was 0.00128 µM in assay [7], > 50 µM in assay [8], > 15 µM in assay [9] and > 15 µM in [10].
In the case of `NCc1ccc(Cl)cc1CNC(=O)[C@@H]1C[C@@H](N)CN1C(=O)[C@@H](CCC(=O)N1CCOCC1)NS(=O)(=O)Cc1ccccc1` [Compound 2.25], the Ki is > 20 µM in [1]; > 100 µM in [2]; > 30 µM in assay [3]; 0.0011 µM in assay [4]; > 100 µM in assay [5]; 2.58 µM in assay [6]. The Ki in [7] was 0.0047 µM; in [8] it was > 50 µM; in assay [9], > 10 µM; in assay [10], > 50 µM.
Consider `CN(C(=O)CC[C@@H](NS(=O)(=O)Cc1ccccc1)C(=O)N1CCC[C@H]1C(=O)NCc1cc(Cl)ccc1CN)C1CCOCC1` [Compound 2.26], for which the Ki in assay [1] was > 100 µM; in assay [2] it was > 10 µM; in [3], > 100 µM; in [4], 0.0069 µM; in assay [5], > 50 µM; in [6] it was 2.55 µM. For the same compound, the Ki in [7] is 0.001 µM; in [8], > 50 µM; in assay [9], > 30 µM; in assay [10], > 100 µM.
